Measurements published in paper PMC8521618 (ACS Medicinal Chemistry Letters, 2021).

Assay: Pharmacokinetics in mice
Conditions: for Vd: Vss, PK parameters (mouse)
[1] = CD1, mouse, in vivo, iv, 1 mg/kg, Table 3

| estimated Fa (mouse, 50 mpk) | Structure (SMILES) | Vd [1] | half-life (CD1, mouse, in vivo, iv, 1 mg/kg, terminal t1/2, PK parameters (mouse), Table 3) | fraction absorbed (mouse, 10 mpk, 0.5% CMC/0.1% Tween80) | estimated Fa (mouse, 30 mpk) |
| --- | --- | --- | --- | --- | --- |
| <0.01 (50 mpk) | CC(=O)N(C)C1CCN(c2cc(F)cc(NC(=O)c3cc4c(F)ccc(C)c4[nH]3)c2)C1 (stereo not drawn) [Compound 25, 4-fluoro-N-[3-fluoro-5-[3-(N-methylacetamido)pyrrolidin-1-yl]phenyl]-7-methyl-1H-indole-2-carboxamide] | 1.04 L/kg |  |  |  |
|  | Cc1ccc(F)c2cc(C(=O)N[C@@H]3CCC[C@H](N4CC[C@H](N(C)S(C)(=O)=O)C4)C3)[nH]c12 [Compound 32] | 8.13 L/kg | 3.13 h | 0.6 | 0.7 (30 mpk) |
